Values joined by “and” are separate entries in the source; they are usually repeats but may differ in a detail not shown here. Identical values can stand only once. “Also recorded” adds a separate entry of the source. Like-named read-outs stand apart in the source and are kept apart here.
Key:
[1] = molecular target: LAPTc (Trypanosoma cruzi, UniProt V5BWE3); assay: Mode of inhibition studies by RapidFire-MS; assay type: biochemical
Description: Five concentrations of the LSTVIVR peptide substrate (100–1600 μM range) were tested in the presence of 3 nM LAPTc for 40 min. For each substrate concentration, compound 4 was tested at 0, 0.1 and 0.2 μM. For each substrate and compound 4 concentration, a negative control without enzyme was used. Before addition of substrate, LAPTc was preincubated with compound 4 for 15 min. Other experimental conditions were as previously described. Ki was calculated by fitting the Morrison equation to the experimental data. Binding energy (ΔGb) was calculated from Ki according to the equation ΔG = -RTlnKi.

[2] = tested on: HepG2 cells; assay: Cytotoxicity assay on human HepG2 cells (resazurin); assay type: cell-based
[3] = as above; assay type: cell-based; conditions: human, HepG2 cells, 72 h, two independent experiments; read-out: pCC50 (HepG2) (converted)
[4] = molecular target: T1, human LAP3 (Homo sapiens, UniProt P28838); assay: Dose-response studies for human LAP3 inhibition by RapidFire-MS; assay type: biochemical
T1 construct: purchased Assay Genie, Ireland
Description: Human LAP3 enzyme (Assay Genie, Ireland) was tested at 150 nM with 600 μM (~1 appKM) LSTVIVR peptide substrate and 1 mM ZnCl2 in a 180 min reaction. All other experimental conditions were as described above for dose-response assays with LAPTc.

[5] = molecular target: T2, LAPTc (acidic M17 leucyl-aminopeptidase from T. cruzi) (Trypanosoma cruzi, UniProt V5BWE3); assay: High-throughput single point screening for LAPTc inhibitors by RapidFire-MS; assay type: biochemical; conditions: read-out: Percent Inhibition
Description: (§1) This assay was previously described. The assay was performed in 384-well clear F-bottom polypropylene plates with a final reaction volume of 15 μL. The reaction mixture contained 7.5 μL LAPTc in 50 mM Tris-HCl, pH 7.5, 0.005% NP-40 and 7.5 μL LSTVIVR peptide substrate (Cambridge Research Biochemicals, Billingham, UK) in the same buffer was added to start the reaction. The reaction was performed at room temperature for 40 min and then stopped with 85 μL 1% formic acid containing 0.15 mg/mL STVIVR* internal standard (Cambridge Research Biochemicals, Billingham, UK).
Single point screening of a library of 3329 compounds was performed in 384-well clear plates (Greiner 781101) at room temperature. Test compounds (45 nL in DMSO) were transferred to assay plates by an ECHO 550 acoustic dispenser (Labcyte). LAPTc was tested at 3 nM with 150 μM (approximately the value of the apparent Michaelis-Menten constant -appKM- [16]) LSTVIVR peptide substrate in a 40 min reaction. Before addition of substrate, LAPTc was preincubated with 45 nL compounds or DMSO for 15 min. Compounds, dissolved in DMSO, were tested at 30 μM. Controls without compound (the same volume of DMSO, 0% inhibitory effect) and without enzyme and compound (100% inhibitory effect) were prepared. The experiment was performed without replicates. The remaining experimental conditions were maintained as previously described. Data were processed and analysed through ActivityBase XE (IDBS). The selection criterion for hits in this single point screen was percent inhibition larger than the mean plus three standard deviations. All primary screening data are available in ChEMBL (see Data Availability statement).

[6] = tested on: intracellular T. cruzi amastigotes; assay: T. cruzi intracellular assay (high-content imaging, infected Vero cells); assay type: cell-based, Trypanosoma cruzi; set-up: Max Effect (T. cruzi): unit not given here
Description: T. cruzi parasite, TcI strain Silvio X10/7 subclone A1 [34] was maintained in culture as previously described. Parasites were maintained as amastigotes by passaging on a weekly basis in Vero cells. Culture maintenance infections were carried out at an MOI (multiplicity of infection) of 1.5.
(§2) This assay was performed as described with the only modification that treatment was 96 h instead of 72 h. Briefly, Vero cells were infected overnight with tissue culture derived T. cruzi trypomastigotes in T225 tissue culture flasks (MOI 5). Any remaining free trypomastigotes were washed away with serum free MEM and the infected Vero cells were harvested by trypsinisation. Compounds (250 nL in DMSO) were dispensed using LabCyte ECHO (Beckman Coulter Life Sciences, USA) into each well of Corning black flat bottomed 384-well plates (Corning, USA). […] The infected Vero cells were then plated into the plates containing the compounds, at 4,000 cells per well in MEM media with 1% FCS. After 96 h incubation at 37°C in presence of 5% CO2, the plates were fixed with 4% formaldehyde for 20 min at room temperature and stained with 5 μg/mL Hoechst 33342. The plates were imaged on a Perkin Elmer Operetta high-content imaging system using a 20× objective. Images were analyzed using the Columbus system (Perkin Elmer). The algorithm first identified the Vero nuclei followed by demarcation of the cytoplasm and identification of intracellular amastigotes. This algorithm reported percent infected Vero cell and total number of Vero cells. All potency determinations were carried out in at least three independent replicates and are reported as pEC50 +/- standard deviation. pEC50 = -log(EC50[M]).

[7] = molecular target: T2, LAPTc (acidic M17 leucyl-aminopeptidase from T. cruzi); assay: Dose-response studies for LAPTc inhibition by RapidFire-MS; assay type: biochemical
Description: as §1
To generate half-maximum inhibitory concentration (IC50) data for LAPTc, 10-point dose-response curves with 100 μM as highest concentration and 1:2 dilution in DMSO (0.195–100 μM range) were prepared in 384 well plates. All other experimental conditions were as described above. All IC50 curve fitting was performed by four-parameter logistic dose-response curve fit using ActivityBase XE (IDBS). At least three replicates were generated for each hit compound.

[8] = tested on: Vero cells; assay: Cytotoxicity against infected Vero host cells in T. cruzi intracellular assay; assay type: cell-based, African green monkey; set-up: Max Effect (Vero): unit not given here
Description: (§3) Briefly, these cells were maintained at 37°C and 5% CO2 in MEM supplemented with 10% FCS, sub-culturing every 2–3 days at a ratio of 1:5 after 5 min treatment with Trypsin-EDTA (Gibco).
as §2, with “After 96 h incubation at 37°C in presence of 5% CO2, the plates were fixed with 4% formaldehyde for 20 min at room temperature and stained with 5 μg/mL Hoechst 33342.” left out

[9] = as above; assay type: cell-based, African green monkey; set-up: Max Effect (Vero): unit not given here; conditions: African green monkey, Vero cells infected with T. cruzi; infected Vero host cells, 96 h; read-out: pCC50 (Vero) +/- StDev (converted)
Description: as §3
as §2, with “After 96 h incubation at 37°C in presence of 5% CO2, the plates were fixed with 4% formaldehyde for 20 min at room temperature and stained with 5 μg/mL Hoechst 33342.” left out

[10] = Replicate data generation, individual replicates

Chain of LAPTc (V5BWE3 entry or part of it): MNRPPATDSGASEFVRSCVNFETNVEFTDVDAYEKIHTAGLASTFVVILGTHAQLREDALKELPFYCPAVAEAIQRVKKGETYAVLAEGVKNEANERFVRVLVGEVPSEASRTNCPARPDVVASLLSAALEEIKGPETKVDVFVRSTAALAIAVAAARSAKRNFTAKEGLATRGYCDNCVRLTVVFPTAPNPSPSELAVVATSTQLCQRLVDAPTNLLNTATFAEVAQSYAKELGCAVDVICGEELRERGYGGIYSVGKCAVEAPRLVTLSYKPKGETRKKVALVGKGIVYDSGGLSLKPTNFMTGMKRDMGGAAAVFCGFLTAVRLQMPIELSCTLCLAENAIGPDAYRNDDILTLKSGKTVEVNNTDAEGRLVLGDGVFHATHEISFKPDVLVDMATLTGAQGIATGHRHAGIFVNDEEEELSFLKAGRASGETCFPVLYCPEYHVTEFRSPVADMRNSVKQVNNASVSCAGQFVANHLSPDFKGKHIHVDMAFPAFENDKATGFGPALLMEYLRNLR
T2 sequence (V5BWE3 entry or part of it): as above
T1 sequence (P28838 whole entry): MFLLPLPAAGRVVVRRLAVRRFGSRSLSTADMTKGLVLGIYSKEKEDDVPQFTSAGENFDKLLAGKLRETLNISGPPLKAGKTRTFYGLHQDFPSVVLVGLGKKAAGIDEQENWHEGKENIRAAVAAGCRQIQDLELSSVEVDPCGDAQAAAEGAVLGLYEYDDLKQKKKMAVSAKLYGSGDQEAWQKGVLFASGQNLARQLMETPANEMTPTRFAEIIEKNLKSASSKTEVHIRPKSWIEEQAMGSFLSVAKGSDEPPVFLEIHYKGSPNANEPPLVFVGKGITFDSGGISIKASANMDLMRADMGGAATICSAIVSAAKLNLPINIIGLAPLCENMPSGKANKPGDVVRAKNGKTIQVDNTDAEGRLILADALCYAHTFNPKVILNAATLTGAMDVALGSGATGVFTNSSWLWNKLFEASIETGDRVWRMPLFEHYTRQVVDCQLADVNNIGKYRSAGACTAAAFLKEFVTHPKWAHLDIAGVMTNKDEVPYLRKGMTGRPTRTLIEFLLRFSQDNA

In the case of `COc1ccc2oc(C(=O)Nc3nc(-c4ccccn4)cs3)c(C)c2c1` [Compound 4], the Ki [1] is reported as 270 nM, the “ligand efficiency (LE)” value ([1]; LE = -RT ln Ki / number of non-hydrogen atoms) is reported as 0.33 and the “experimental binding energy (ΔGb)” value ([1]; calculated from Ki, ΔG = -RTlnKi) is reported as -8.95 kcal/mol. The mode of inhibition ([1]; with respect to substrate peptide LSTVIVR, Lineweaver-Burk) was “competitive inhibitor”, the “Selectivity window based on the HepG2 data” value ([2]; T. cruzi vs HepG2) was over 166 fold and the “Max Effect (HepG2)” value ([2]; individual replicates) was 38 and 49. The “pEC50 (HepG2)” value ([2]; individual replicates) was under 4.0, the “toxicity against HepG2 cells (in words)” value ([2]; uninfected HepG2 cells) was “no toxicity was observed; also recorded: some toxicity was seen for compound 4 at 33 μM and 100 μM” and the CC50 at 72 h [3] was over 100000 nM. The IC50 [4] was over 100000 nM, the inhibition at 30 µM [5] was 59% and the EC50 ([6]; Trypanosoma cruzi, Vero, 96 h, four independent experiments, read-out: pEC50 (T. cruzi) +/- StDev (converted)) was 676 nM. The EC50 ([6]; Trypanosoma cruzi, Vero, 96 h, read-out: EC50 (T. cruzi amastigotes)) was 700 nM, the Emax ([6]; Trypanosoma cruzi, Vero, individual replicates, read-out: Max Effect (T. cruzi)) was 95% and the EC50 ([6]; Trypanosoma cruzi, Vero, individual replicates, read-out: pEC50 (T. cruzi) (converted)) was 631 nM. The “Max Effect (T. cruzi)” value ([6]; individual replicates) was 92 and 96 and 100, the “pEC50 (T. cruzi)” value ([6]; individual replicates) was 6.1 and the IC50 ([7]; IC50 (LAPTc)) was 440 nM. The “Hill Slope” value ([7]; Initial hit confirmation, single replicate) was 2.5, the “Hill Slope” value [7, 10] was 2.8 and 2.1 and 2.3 and the “Maximum Effect” value [7, 10] was 87% and 81%. The IC50 ([7]; pIC50 +/- StDev (LAPTc), average of four independent replicates) was 437 nM, the IC50 ([7]; pIC50, Initial hit confirmation, single replicate) was 200 nM and the IC50 ([7]; pIC50, Replicate data generation, individual replicates) was 794 nM and 501 nM. For the same compound, the Emax ([7]; read-out: Maximum Effect, Initial hit confirmation, single replicate) was 96%, the Emax ([7]; read-out: Maximum Effect, Replicate data generation, individual replicates) was 83% and the “Hit Confirmation” value ([7]; whether primary screen hit confirmed in potency experiment) was “confirmed”. For the same compound, the “Selectivity index (fold window Tc/Vero)” value [8] was 3.3 fold, the “Max Effect (Vero)” value ([8]; individual replicates) was 85 and 83 and 79 and the “pEC50 (Vero)” value ([8]; individual replicates) was 5.4 and 6.0 and 5.5 and 5.8. The CC50 at 96 h [9] was 2240 nM.
